From patent publication US4060652A (priority 1976, dated 1977)
“Also recorded” adds a separate entry of the source.

Assays:
[1] = test system: nervomuscular conduction and arterial pressure; test: Effect of narcotics on action in decerebrated cats; assay type: in vivo
Description: The action of ether, fluorothane, and sodium thiopental (given in narcotic concentrations) on the nervomuscular blocking activity and depressive effect (action on the arterial pressure) of Tercuronium, as well as on the neostigmin-Tercuronium antagonism was studied on decerebrated cats.

[2] = test system: nervomuscular conduction, anterior tibial muscle; test: Neostigmin antagonism of nervomuscular block in cats; assay type: in vivo
Procedure: Cats were narcotized (with chloralose, 50 mg per kg body weight, and urethane, 500 mg/kg, intraperitoneally) or decerebrated at the quadrigeminal bodies level. The lungs were ventilated artificially whenever necessary. Contractions of the anterior tibial muscle were recorded in isotonic concitions in response to electric stimulation of the peripheral part of n. peroneus with supramaximum pulses of 0.1 msec at a frequency of 0.1-100 Hz.
For example, even with a 5-fold dose of tercuronium, muscle contractility was restored already in 2 to 5 minutes following a single injection of neostigmin in a dose of 0.1 mg/kg, and in 15-20 minutes the recovery of the contactile function was complete.
In the case of pancuronium and α-tubocurarin, the restoration within these short periods of time could only be attained with 2-3 fold doses of these muscle relaxants. If the dose of pancuronium was increased 4 to 5 times, weak contractions of the muscle were observed not sooner than in 9 to 10 minutes and the contraction was, restored completely only 30 minutes after the injection of neostigmin (six experiments). The restoration of muscle contractility is delayed even longer in the case of α-tubocurarin.

rabbits = test: Chronic toxicity in rabbits; assay type: in vivo
Procedure: Tercuronium was given intravenously to four rabbits, once a day in the course of twelve days, in a dose that induced the head-drop symptom, i.e. 0.02 to 0.024 mcM/kg. Physiological solution was injected instead of Tercuronium to two other rabbits (controls). The animals were weighed daily, their rectal temperature taken, and behaviour observed. Clinical analysis of urine and blood was performed three times. At the end of the experiment, the rabbits were killed (phlebotomy). The liver, kidneys, heart, lungs, adrenal glands, spleen, as well as marginal ear vein, into which Tercuronium had been injected, were histologically studied.

[3] = Solubility, stability and pH; assay type: physicochemical; conditions: for stability on exposure to air: solid
Procedure: The active principle of Tercuronium, viz., p,p"-bis-triethylammonio-n-terphenyl dibenzenesulphonate having the structure [drawing 1] is a new compound that has not been described in literature. […] A 0.0012 percent solution of the active principle in a 0.01 N solution of hydrochloric acid has a specific absorption spectrum in the U-V region, with a maximum at 285 ± 2 nm and a minimum at 237 ± 1 nm.
Distilled water should contain a stabilizing agent, namely 3 ml of a 0.1 N solution of HCl per liter of water. The solution is stirred, filtered, and filled into 1-ml ampoules made of neutral glass. The ampoules are sterilized with steam at a temperature of 100° C for thirty minutes. The pH of the solution after sterilization is 3.7 (determined potentiometrically).

arterial pressure = test: Effect on arterial pressure in cats and rabbits; assay type: in vivo
Procedure: (§1) Experiments were carried out on narcotized cats and rabbits (50 mg/kg of chloralose and 500 mg/kg urethane, intraperitoneally) and also on cats decerebrated at the quadrigeminal level. The blood pressure in the carotid artery was recorded with a mercury pressure gauge. The preparations were injected intravenously.
(§2) When Tercuronium was given in a quantity ten times exceeding the myoparalytic dose (0.8 mcM/kg) an insignificant and transient reduction (10 to 20 mm Hg) of the blood pressure was observed. The animals (7 cats and 5 rabbits) tolerated injections of very large doses of Tercuronium, viz., 10-20 mcM/kg, which is 200 times higher than the myoparalytic dose. […] In all experiments, in 1 to 2 hours, the arterial pressure restored completely or was close to the initial level.

[4] = Effect on arterial pressure in cats and rabbits; assay type: in vivo; conditions: rabbit, in vivo, iv, artificial ventilation
Procedure: as §1, §2

[5] = test system: nervomuscular conduction, vegetative ganglia, circulation; test: Overall conclusions from animal experiments; assay type: in vivo, animals
Description: The results of the pharmacological studies of the proposed muscle relaxant Tercuronium, as compared with the known muscle relaxants, enable us to make the following conclusions.

patients = test: Surgical operations, first series (maintenance of relaxation); assay type: in vivo, patients (human)
Procedure: We tried Tercuronium as a muscle relaxant in surgical operations on the abdominal and thoracic organs in 150 patients. The operations were carried out in conditions of intubation narcosis and artificial lung ventilation. Ether, fluorothane, nitrous oxide and barbiturates were used as anesthetics.
In the first series of observations (120 operations) Tercuronium was used as the main muscle relaxant for maintaining relaxation of the muscles. Tracheal intubation was carried out with muscle relaxation induced by dithilin-group agents. […] Complete muscle relaxation with the absence of active respiration continued on an average of 40 minutes. If, with the first signs of restoration of the muscle tone, we made another intravenous injection of Tercuronium in a dose constituting 1/3 to 1/2 of the initial one, complete relaxation continued for further 60 - 90 minutes.

[6] = test system: M-cholinoreceptors and conduction in parasympathetic ganglia; test: Effect on M-cholinoreceptors and parasympathetic ganglia, n. vagus stimulation in cats; assay type: in vivo
Procedure: Experiments were carried out on narcotized cats (chloralose and urethane, intraperitoneally).
In experiments on five animals, the left nervus vagus was cut. Platinum electrodes were placed on the peripherial part to stimulate the nerve with pulses of 0.1 msec and an amplitude of 5 V. The nerve was stimulated every 10 seconds at a frequency of 30 Hz. The pulse rate was recorded (ECG) and the blood pressure in the femoral artery was measured with a mercury pressure gauge.

[7] = deep fluorothane-induced anesthesia
[8] = ether, fluorothane, sodium thiopental
[9] = 0.02 to 0.024 mcM/kg daily, twelve days

Compound: CC[N+](CC)(CC)c1ccc(-c2ccc(-c3ccc([N+](CC)(CC)CC)cc3)cc2)cc1 [Tercuronium, p,p"-bis-triethylammonio-n-terphenyl dibenzenesulphonate]
- interaction with fluorothane on blood pressure ([1]; decerebrated cats): did not observe mutual strengthening of fluorothane and Tercuronium action on blood pressure
- action on arterial pressure in ether narcosis ([1]; deep ether-induced narcosis): did not substantially change
- depressive effect in fluorothane anesthesia [1, 7]: failed to increase
- myoparalytic effect in fluorothane anesthesia [1, 7]: intensified insignificantly
- compatibility with anesthetic agents [1, 8]: quite compatible with anesthetic agents such as ether, fluorothane, and sodium thiopental
- neostigmin antagonism against background of narcotics [1, 8]: persisted against the back ground of narcotics; also recorded: fully preserved
- curare-like activity and action on blood pressure with sodium thiopental ([1]; sodium thiopental 10 mg/kg): did not change
- time to complete recovery of contractile function after neostigmin ([2]; 5-fold dose, neostigmin 0.1 mg/kg): 15 to 20 min
- strength of neostigmin antagonism compared with other relaxants ([2]; cats): stronger that toward α-tubocurarin or pancuronium; also recorded: stronger with Tercuronium than with pancuronium or α-tubocurarin
- number of myoparalytic doses whose blocking effect is completely removed by neostigmin ([2]; neostigmin 0.1 mg/kg intravenous, within five minutes): five
- restoration from block by neostigmin ([2]; neostigmin 0.05 to 0.1 mg/kg intravenous): fully and immediately restored
- behaviour and rectal temperature (rabbits; [9]): no appreciable changes
- blood and urine analysis (rabbits; [9]): did not find any pathological inclusions or changes
- histological examination of organs (rabbits; [9]): Nor did we discover any pathological changes
- sensitivity of animals in the course of the experiment (rabbits; 0.02 to 0.024 mcM/kg intravenous daily, twelve days): did not change in the course of the experiment
- irritating action at site of administration (rabbits; ear vein): no signs of irritating action
- solubility in water [3]: readily soluble in water
- stability on exposure to air [3]: slightly green when exposed to air
- stability on exposure to air ([3]; listed as p,p"-bis-triethylammonio-p-terphenyl): becomes slightly green on exposture to air
- stability of aqueous solution ([3]; stabilizer 3 ml of 0.1 N HCl per liter of water): stable in the presence of a stabilizer
- blood pressure at very large doses (arterial pressure; 10-20 mcM/kg): quickly and sharply dropped and then slowly normalized
- arterial pressure on doses that inhibit respiration (arterial pressure; active ventilation of the lungs): asphyxial rise in the arterial pressure
- effect on arterial pressure of myoparalytic (complete block) dose (arterial pressure; artificial ventilation): the arterial pressure was not affected
- reduction of blood pressure (arterial pressure; ten times the myoparalytic dose (0.8 mcM/kg)): 10-20 mm Hg
- effect on arterial pressure, comparison (arterial pressure; versus the other two muscle relaxants): mildest effect on the arterial pressure
- selectivity ratio ([4]; 10-20 mcM/kg, read-out: tolerated dose as multiple of myoparalytic dose): 200
- MTD ([4]; cats and rabbits, read-out: tolerated dose): 10 to 20 µmol/kg
- blood pressure at ten-fold dose ([5]; cats, ten-fold dose): only slightly reduced
- nervomuscular blocking activity compared with pancuronium ([5]; experiments on animals): somewhat lower than of pancuronium
- histamine, vegetative ganglia, blood pressure and heart frequency ([5]; myoparalytic dose): does not produce histamine, does not block vegetative ganglia or affect the blood pressure and frequency of heart contractions
- frequency of heart contraction ([5]; ten times the myoparalytic dose): does not affect the frequency of heart contraction
- arterial pressure and frequency of heart contractions (patients; 0.12 - 0.15 mg/kg): No changes in arterial pressure ar frequency of heart contractions, that could be attributed to the injection of Tercuronium, were observed
- duration of complete muscle relaxation with absence of active respiration (patients; 0.12 - 0.15 mg/kg intravenous, average): 40 min
- electromyographic character of action (patients; electromyographic analysis): nondepolarizing muscle relaxant
- postoperative complications (patients; postoperative period): did not observe any case of insufficient efficacy of proserpin, muscular atomia, or insufficiency of active respiration, or recurarization
- restoration of active respiration by proserpin (patients; proserpin 2.5 mg at end of operation): always resulted in quick (within a few minutes) restoration of active respiration in full volume
- response of n. vagus to stimulation ([6]; 0.1 and 1.0 mcM/kg): the response of n. vagus to stimulation did not change
- heart contractility without stimulation of n. vagus ([6]; 0.1 and 1.0 mcM/kg intravenous): heart contractility was not affected
- effect on parasympathetic part of the vegetative nerve system ([6]; 20 times the myoparalytic dose): does not produce any effect on the parasympathetic part of the vegetative nerve system
- bronchospasm or salivation ([6]; very large dose, other experiments on animals): no bronchospasm or salivation were observed
